Read-outs that look alike come from different tables or passages of the source.
Legend:
[1] = tested on: lymphoma cell lines; test: 6-day growth-death assay (Cell Titer Glo); format: cell-based, human; details: Hodgkin's and non-Hodgkin's subtypes
Experimental: (§4) The growth of all cell lines was evaluated over time across a wide range of seeding densities to identify conditions that permitted proliferation throughout the entire 6-day assay. Cells were plated at the optimal seeding density and after overnight incubation, a 20-point 2-fold titration of compound was added and plates were incubated for 6 days. A replicate plate of cells was harvested at the time of compound addition to quantify the starting number of cells (T0). Values obtained after the 6 day treatment were expressed as a function of the T0 value and plotted against compound concentration. The T0 value was normalized to 100% and represents the number of cells at the time of compound addition. The data were fit with a 4 parameter equation to generate a concentration response curve and the growth IC50 (gIC50) was determined. The gIC50 is the midpoint of the ‘growth window’, the difference between the number of cells at the time of compound addition (T0) and the number of cells after 6 days (DMSO control). The growth-death assay can be used to quantify the net population change, clearly defining cell death (cytotoxicity) as fewer cells compared to the number at the time of compound addition (T0).

[2] = dog, at 21-day MTD […] mg/kg
[3] = tested on: Toledo DLBCL cells; test: western analysis of arginine methylation, timecourse; format: cell-based, human; details: 0.4 uM
Experimental: (B) Representative western blots of arginine methylation marks. Regions quantified are denoted by black bars on the right of the gel.
As predicted, ADMA methylation decreased while MMA increased upon compound exposure (FIG. 12). […] Given the detection of numerous substrates with varying kinetics, and variability of ADMA levels among DMSO-treated samples, both the full lane and a prominent 45 kDa band were characterized to assess ADMA. Increases in MMA were apparent by 24 hours and near maximal by 48 hours while decreases in the 45 kDa ADMA band required 72-96 hours to achieve maximal effect. Increases in SDMA were apparent after 48 hours of compound exposure and continued to increase through 120 hours, consistent with the potential switch from conversion of MMA to ADMA by Type I PRMTs to SDMA by Type II PRMTs (FIG. 12).

[4] = tested on: panel of lymphoma cell lines; test: western dose response of arginine methylation; format: cell-based, human; details: all lymphoma cell lines evaluated; 72 hours
Description: Regions quantified for (B) are denoted by black bars to the left of gels. […] Corresponding gIC50 values in 6-day growth death assay are as indicated in red.

[5] = tested on: U2932
Experimental: (§1) FIG. 18: Propidium iodide FACS analysis of cell cycle in human lymphoma cell lines. […] Data represents the average±SEM of biological replicates, n=2.
(§2) By day 7, an increase in the sub-G1 population was apparent at concentrations ≥100 nM.

[6] = tested on: OCI-Ly1
Experimental: as §1, §2

[7] = tested on: AML cell lines; test: 6 and 10 day proliferation assays; format: cell-based, human; details: day 10 vs day 6
Description: (§3) (B) Ymin-T0 at 6 day (light blue) and 10 day (dark blue) with corresponding gIC100 (red points).

[8] = tested on: lymphoma cell lines; test: 6 and 10 day proliferation assays; format: cell-based, human; details: day 10 vs day 6
Description: as §3

[9] = tested on: kidney cancer cell lines; test: 6-day growth-death assay (Cell Titer Glo); format: cell-based, human; details: renal cell carcinoma lines tested
Experimental: as §4

[10] = rat, at 14-day MTD […] mg/kg
[11] = tested on: AML cell lines; test: 6-day growth-death assay (Cell Titer Glo); format: cell-based, human; details: 10 cell lines
Experimental: as §4

[12] = tested on: AML cell lines; test: Methylscan proteomic evaluation of arginine methylation; format: cell-based; details: AML cell lines treated with the tool compound vs DMSO
Description: FIG. 3: Methylscan evaluation of cell lines treated with Compound D. Percent of proteins with methylation changes (independent of directionality of change) are categorized by functional group as indicated.
To identify putative PRMT1 substrates, a proteomic approach (Methylscan, Cell Signaling Technology) was utilized to identify proteins with changes in arginine methylation states in response to a tool PRMT1 inhibitor, Compound D. Protein fragments from Compound D- and DSMO-treated cell extracts were immunoprecipitated using methyl arginine specific antibodies (ADMA, MMA, SDMA), and peptides were identified by mass spectrometry.

CCOCC1(COCC)CCC(c2n[nH]cc2CN(C)CCNC)CC1 [Compound A]
sensitivity by lymphoma subtype [1]: equally sensitive
Cave (total AUC or exposure) [2]: 3.2 µM
time to maximal decrease of the 45 kDa ADMA band [3]: 72 to 96 h
change of ADMA methylation ([3]; up to 120 hours): decreased
change of MMA ([3]; up to 120 hours): increased
change of SDMA ([3]; up to 120 hours): increase
45 kDa ADMA band [4]: decreased to undetectable levels
concentration at which sub-G1 effect was evident [5]: 10 µM
concentration at which sub-G1 effect was evident [6]: 10 µM
effect of extended exposure on potency (gIC50) or cytotoxicity (Ymin-T0) [7]: minimal effects
effect of extended exposure on potency (gIC50) or cytotoxicity (Ymin-T0) [8]: minimal effects
cytotoxic response [9]: none of the lines tested showed a cytotoxic response
Cave (total AUC or exposure) [10]: 2.1 µM
number of cell lines in which cytotoxicity was induced [11]: 5 cell lines

CNCCN(C)Cc1c[nH]nc1[C@H]1CC[C@@]2(CC1)CC(C)(C)CO2 [Compound D]
proteins with changes in arginine methylation states (ADMA, MMA, SDMA) [12]: the majority of substrates identified were transcriptional regulators and RNA processing proteins

Reference: patent US20210260033A1, “COMBINED THERAPY WITH ICOS BINDING PROTEINS AND […] INHIBITORS” (GLAXOSMITHKLINE INTELLECTUAL PROPERTY DEVELOPMENT LIMITED, priority 2018, published 2021)
